Marks after values point to notes of the source that are not given here.
Columns and labels:
male ICR mice [1] = assay: L-dopa/carbidopa plus MAO-B inhibitors in mice pretreated with reserpine (open-field test); type: in vivo, mouse; settings: reserpine 3 mg/kg i.p., FCS005 100 mg/kg p.o. plus L-dopa:carbidopa 100:10 mg/kg i.p.
Protocol: (§2) In the reserpine model and l-dopa/carbidopa assays, the locomotor activity was evaluated in the open-field test. The open field was a square arena divided into 16 squares with surrounding walls to prevent escape. Animals were placed individually in the middle of the open field and the specific parameter evaluated was the number of cadres traversed during 5 minutes. The open field was cleaned with a water-alcohol (10%) solution before placing the next animal to eliminate possible bias due to odors left by previous subjects.
Levodopa plus carbidopa were administrated i.p. 30 min later. Locomotor activity was evaluated at 2 and 24 h after the administration of reserpine.

male ICR mice [2] = assay: Haloperidol-induced catalepsy, horizontal bar test; type: in vivo, mouse; settings: FCS005 100 mg/kg p.o.
Protocol: Haloperidol was administered to the animals to induce rigidity and akinesia (catalepsy) [25]^,[26]. Catalepsy was defined as the prolonged maintenance of both forepaws in an atypical position on a horizontal bar.
The animals received haloperidol (3 mg/kg) i.p.; FCS005 (100 mg/kg, p.o.), levodopa:carbidopa (400 mg/kg:40 mg/kg; p.o.) or vehicle (p.o) was administrated 30 min before. The reversal of catalepsy was evaluated for 2 min 60 min after the administration of the treatments.

male ICR mice [3] = assay: Motor activity in mice not pretreated with reserpine (open-field test); type: in vivo, mouse; settings: 50 mg/kg p.o.
Protocol: We used male ICR mice six to seven weeks old (25 - 30 g) provided by the bioterium of the Departamento de Farmacia, Facultad de Ciencias, at Universidad Nacional de Colombia. The animals were kept under standard laboratory conditions, 12-hour light-dark cycles, and at room temperature (22 ± 1°C) with food and water available ad libitum.
The open field was a square arena divided into 16 squares with surrounding walls to prevent escape. Animals were placed individually in the middle of the open field and the specific parameter evaluated was the number of cadres traversed during 5 minutes. The open field was cleaned with a water-alcohol (10%) solution before placing the next animal to eliminate possible bias due to odors left by previous subjects.

male ICR mice [4] = assay: Reserpine model, reversal of hypokinesia (open-field test); type: in vivo, mouse; settings: reserpine 3 mg/kg i.p., 100 mg/kg p.o.
Protocol: as §2
The vehicle was a mixture of 15% propylene glycol, 15% glycerol, and enough distilled water to make up 100%. Locomotor activity was evaluated at 2 and 24 h after reserpine administration.

[5] = system: brain homogenates of mice; assay: Ex vivo lipid peroxidation (TBARS) in brain homogenates of haloperidol-treated mice; design: species or system mouse; settings: 10 days, FCS005 50 mg/kg p.o., levodopa:carbidopa 400:40 mg/kg p.o., haloperidol 1 mg/kg i.p., compared to control animals
Protocol: (§1) Antioxidant activity was evaluated ex vivo. Mice were administered daily for 10 days with the treatments FCS005 (50 mg/kg, p.o.), levodopa:carbidopa (400 mg/kg:40 mg/kg, p.o.) or vehicle (p.o.) followed by haloperidol (1 mg/kg, i.p.) 30 min later. Then, the animals were killed by decapitation and the brains were removed, washed in 1% KCl, dissected on an ice-cold plate, and homogenized in 50 mM Tris-HCl buffer (pH 7.4). Homogenates were centrifuged (10,000 rpm for 10 min at 4°C). The final supernatant was stored at -20°C. The protein content of each sample was determined by the Bradford method.
The index of lipid peroxidation was evaluated following the protocol described by Hijova, et al.[27]. The brain homogenate (450 µL), 1 mL trichloroacetic acid (10%), and 50 µL of 50 mM phosphate buffer (pH 7.4) were centrifuged at 1850 xg for 10 min at 4°C; then, 1 mL of thiobarbituric acid (0.67%) was added to 1 mL of the supernatant. This mixture was heated to 92°C for 30 min and then cooled in an ice bath (4°C) before the absorbance was measured at 532 nm. The results were expressed as thiobarbituric acid reactive substances (TBARS) in mmol/mL/mg of tissue protein.

recombinant hMAO-B = molecular target: T1, recombinant hMAO-B (Homo sapiens, UniProt P27338); assay: hMAO-B inhibitory activity (Amplex Red MAO kit)
T1 sequence (P27338 1-520): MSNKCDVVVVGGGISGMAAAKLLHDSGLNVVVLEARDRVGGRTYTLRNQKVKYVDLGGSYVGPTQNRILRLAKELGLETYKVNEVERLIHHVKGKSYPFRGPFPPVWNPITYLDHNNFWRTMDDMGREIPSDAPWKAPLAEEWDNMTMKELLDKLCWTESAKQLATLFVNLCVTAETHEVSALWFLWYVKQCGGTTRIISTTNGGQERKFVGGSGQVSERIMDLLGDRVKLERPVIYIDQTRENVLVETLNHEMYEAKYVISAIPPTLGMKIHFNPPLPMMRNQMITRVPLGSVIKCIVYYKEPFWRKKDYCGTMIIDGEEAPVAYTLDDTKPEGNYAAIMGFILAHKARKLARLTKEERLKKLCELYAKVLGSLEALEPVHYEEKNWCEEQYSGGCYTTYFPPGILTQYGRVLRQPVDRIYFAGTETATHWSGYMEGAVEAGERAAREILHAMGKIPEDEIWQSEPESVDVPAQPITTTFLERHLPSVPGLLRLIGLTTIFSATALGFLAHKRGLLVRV
Protocol: (§3) In the control experiments, the test drugs were replaced with dilutions of the vehicles. In addition, the specific fluorescence emission was calculated after subtraction of the background activity, which was determined from wells containing all components except the hMAO isoforms that were replaced by a sodium phosphate buffer solution.

recombinant hMAO-A = molecular target: T2, recombinant hMAO-A (Homo sapiens, UniProt P21397); assay: hMAO-A inhibitory activity (Amplex Red MAO kit)
T2 sequence (P21397 1-527): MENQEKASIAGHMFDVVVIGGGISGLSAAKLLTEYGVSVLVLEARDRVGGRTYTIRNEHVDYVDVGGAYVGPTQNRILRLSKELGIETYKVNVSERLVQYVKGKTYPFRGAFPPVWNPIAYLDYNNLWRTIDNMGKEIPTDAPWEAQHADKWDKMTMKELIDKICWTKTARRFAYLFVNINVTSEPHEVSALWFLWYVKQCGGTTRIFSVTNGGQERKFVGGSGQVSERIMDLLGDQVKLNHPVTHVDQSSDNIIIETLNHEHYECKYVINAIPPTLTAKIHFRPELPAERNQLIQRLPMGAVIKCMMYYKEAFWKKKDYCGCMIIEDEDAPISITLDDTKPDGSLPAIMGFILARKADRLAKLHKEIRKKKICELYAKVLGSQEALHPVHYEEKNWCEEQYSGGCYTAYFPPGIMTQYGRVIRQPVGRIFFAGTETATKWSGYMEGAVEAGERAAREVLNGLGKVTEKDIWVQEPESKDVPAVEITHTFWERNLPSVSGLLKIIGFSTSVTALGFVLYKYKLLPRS
Protocol: as §3

[6] = system: brain homogenates of mice; assay: Ex vivo protein carbonyl groups in brain homogenates of haloperidol-treated mice; design: species or system mouse; settings: 10 days, FCS005 50 mg/kg p.o., levodopa:carbidopa 400:40 mg/kg p.o., haloperidol 1 mg/kg i.p., compared to control animals
Protocol: as §1
Quantification of protein carbonyl groups was determined by the technique of Levine, et al.[28], following the protocol described by Baltacioglu, et al.[29]. Briefly, 250 µL of 10 mM 2,4-dinitrophenylhydrazine (DNPH) or 250 µL of 2 M HCl were added to the brain homogenate (50 µL) for the sample or the blank, respectively. The samples were left at room temperature in the dark for 1 h and vigorously stirred every 15 min. Then, 500 µL of trichloroacetic acid (20%) was added. The samples were kept in an ice bath for 15 min and then centrifuged at 11,000 rpm for 5 min. […] The absorbance was determined at 360 nm. The content of carbonyl groups was calculated based on the molar extinction coefficient of DNPH (ε = 22 000 cm-1M-1) and expressed as nmol/mg protein [29].

[7] = system: MAO activities in rat brain mitochondria; design: method as in PMID 11169165; settings: in vitro; cited from earlier work

Cc1coc2cc3oc(=O)ccc3cc12 [FCS005, 3-methyl-7H-furo[3,2-g]chromen-7-one]
Number of cadres traversed (male ICR mice [1]; 2 h after reserpine, p: 0.038 vs control): increased the number of cadres traversed
Number of cadres traversed (male ICR mice [1]; 24 h after reserpine, p: 0.018 vs control): increased the number of cadres traversed
Total catalepsy time (male ICR mice [2]; haloperidol 3 mg/kg i.p., levodopa:carbidopa 400:40 mg/kg p.o., at 60 min, p: 0.001): significant decrease in the total catalepsy time
Cataleptic effects of the treatment itself (male ICR mice [2]; horizontal bar test): did not show any cataleptic effects
Locomotor activity (number of cadres traversed in 5 min) (male ICR mice [3]; at 2 hours, p: 0.023 vs control): significant decrease in the locomotor activity
Locomotor activity (number of cadres traversed in 5 min) (male ICR mice [3]; at 24 hours, p: 0.003 vs control): significant decrease in the locomotor activity
Reversal of hypokinesia produced by reserpine (number of cadres traversed) (male ICR mice [4]; 2 h after reserpine, p: 0.007 vs control): reversal of hypokinesia
Reversal of hypokinesia produced by reserpine (number of cadres traversed) (male ICR mice [4]; 24 h after reserpine, p: 0.002 vs control): reversal of hypokinesia
Lipid peroxidation levels (TBARS) [5]: lower
IC50 (recombinant hMAO-B): 41.6 ± 2.79 µM
Selectivity of MAO inhibition (recombinant hMAO-B; MAO-B vs MAO-A): selective inhibitory activity towards MAO-B
Selectivity index [IC50 (hMAO-A)]/[IC50 (hMAO-B)] (recombinant hMAO-B; hMAO-B selectivity ratio, for FCS005 hMAO-A IC50 assumed to be 100 µM (highest concentration tested)): > 2.4^c
IC50 (recombinant hMAO-A): > 100 µM
Inhibition of MAO-A isoform activity (recombinant hMAO-A; at the highest concentration tested (100 µM)): did not inhibit MAO-A isoform activity
Protein carbonyl groups [6]: lower

O=c1ccc2cc3ccoc3cc2o1 [Psoralen]
Inhibitory actions on MAO activities, isoform preference [7]: preferentially inhibiting MAO-A activity over MAO-B activity

From PMC7357371, “Coumarin analogue 3-methyl-7H-furo[3,2-g]chromen-7-one as a possible antiparkinsonian agent” (Biomédica, 2019)
